# In PMC11741111, “Diversification of Lipopeptide Analogues Drives Versatility in Biological Activities” (Journal of Agricultural and Food Chemistry, 2025):
# Columns and labels:
# B. velezensis UMAF6639 [1] = experiment: Lipopeptide analog bacterial toxicity (growth dynamics, OD600); type: cell-based, Bacillus velezensis; conditions: LB, 28 °C, read every 20 min, triplicate; for effect on B. velezensis UMAF6639 growth (OD600 over 24 h), iturin variants at the higher (mixture) concentration: each analog at 7.35 µM; for effect on B. velezensis UMAF6639 growth (OD600 over 24 h), iturin variants at the higher (mixture) concentration / effect on B. velezensis UMAF6639 growth (OD600 over 24 h), iturins at physiological concentration: Figure 6A-E; for effect on B. velezensis UMAF6639 growth (OD600 over 24 h), iturins at physiological concentration: mix 7.35 µM, C13 1.27, C14 2.39, C15 0.76, C16 1.96, C17 0.93 µM; for toxicity to B. velezensis UMAF6639 (OD600 over 24 h), surfactin variants at the mixture concentration: each analog at 65.83 µM; for toxicity to B. velezensis UMAF6639 (OD600 over 24 h), surfactin variants at the mixture concentration / effect on B. velezensis UMAF6639 growth (OD600 over 24 h), surfactins at physiological concentration: Figure 6K-O; for effect on B. velezensis UMAF6639 growth (OD600 over 24 h), surfactins at physiological concentration: mix 65.83 µM, C12 3.67, C13 16.93, C14 20.49, C15 21.85, C16 4.11 µM
# Protocol: To analyze the toxicity of the lipopeptide variants toward B. velezensis UMAF6639, the wells of 96-well plates with 200 μL of LB medium were inoculated with 5 μL of a bacterial suspension (OD600 = 1), and every analog was added at the desired concentration.
# Methanol concentrations used for lipopeptide treatment in each condition ranged from 0.005 to 4.3%, and the maximum was used as a control to confirm that was not harmful for Bacillus growth. OD600 values were measured in a plate reader (FLUOstar Omega reader, BMG LabTech) in kinetic mode with temperature control (28 °C), with measurements taken every 20 min.
# [2] = tested on: Melon seeds (Rochet Panal - Fitó); experiment: Promotion of radicle growth evaluation in melon seeds; type: in vivo; conditions: seeds bathed 1 h, 5 d at 25 °C in the dark; each analog at mixture concentration (7.35 µM); Figure 5A bottom
# Protocol: Melon seeds (Rochet Panal - Fitó) were surface sterilized with 0.1% sodium hypochlorite and washed twice with distilled water. Seed treatment with the purified variants was performed by bathing the seeds for 1 h at room temperature. The analog concentrations were set to the physiological concentrations obtained from previous calibrations. In addition, a second concentration was assayed as if each analog was the only one produced to reach the same concentration as that of the mixture of each lipopeptide family (Table S3). Since each lipopeptide fraction was reconstituted in methanol, water-treated seeds with the highest concentration of methanol used for lipopeptide treatment were used as control. The methanol concentration ranged from 0.004 to 0.025% for iturins, 0.009 to 0.067% for fengycins and 0.018 to 0.050% for surfactins. The seeds were placed in Petri dishes with moist filter paper and maintained in growth chambers at 25 °C for 5 d under dark conditions. The radicle growth-promoting effects were analyzed on the basis of the radicle areas measured 5 days after seed treatment using Fiji software.[28]
# B. cinerea = experiment: Antifungal activity assay (fungal growth, OD600); type: cell-based, Botrytis cinerea; conditions: 24 h, 25 °C
# Protocol: B. cinerea spores were harvested from sporulated plates with distilled water and filtered through a […] pore membrane to avoid mycelial contamination. 96-well plates containing 100 μL of PDB with 100 spores per well were used, and the corresponding analog concentrations were analyzed for antifungal activity. H2O2 (10 mM) was used as a positive control to induce fungal death. For this experiment, methanol concentrations used for lipopeptide treatment ranged from 2 to 6% for iturins, 0.08 to 0.5% for fengycins and 0.2 to 4% for surfactins. The highest methanol concentration used for each condition was added to the control. The plates were incubated for 24 h with agitation (150 rpm) at 25 °C. After incubation, the OD600 values of the inoculated plates were measured in a plate reader (FLUOstar Omega reader, BMG LabTech) to evaluate fungal growth within the treatments.
# B. velezensis UMAF6639 [3] = experiment: Bacterial counts (CFU) of treated cultures; type: cell-based, Bacillus velezensis; conditions: analogue at its physiological concentration, sampled 14 h after treatment; compared with methanol control; Figure 7A
# [4] = tested on: Fusarium oxysporum f. sp. radicis-lycopersici; conditions: antagonizing Fusarium oxysporum f. sp. radicis-lycopersici; cited from earlier work
# Text: In another recent study, plipastatins, fengycin analogues produced by B. subtilis, were reported to interact with oil bodies (OBs) of the melon seed endosperm, accelerating lipid mobilization and resulting in plant growth promotion (PGP) and immunization.[12] […] Because fengycin B variants have the same fatty acid length, the amino acid at position 6 of the peptide moiety, which differs between fengycin A and B,[46] is important for t ...
substance,measurement,setting,value
"Ser-Asn-Pro-Gln-Asn-Tyr-Asn (head to tail) [C14-iturin A, iturin A analogue with C14 fatty acid chain, iturin Fraction B, purified from B. velezensis UMAF6639]","effect on B. velezensis UMAF6639 growth (OD600 over 24 h), iturin variants at the higher (mixture) concentration",B. velezensis UMAF6639 [1],bacterial growth was slightly delayed
same,"effect on B. velezensis UMAF6639 growth (OD600 over 24 h), iturins at physiological concentration",B. velezensis UMAF6639 [1],no difference from the control
same,"melon seed radicle growth promotion (radicle area), iturin variants at the same concentration",[2],compromised root development
"Glu-Leu/Ile-Leu-Val-Asp-Leu-Leu/Ile (lariat or depsi) [C12-surfactin, surfactin analogue with C12 fatty acid, surfactin Fraction A]","antifungal activity (fungal growth, OD600), surfactins at physiological concentration","B. cinerea; B. cinerea, PDB, mix 65.83 µM, C12 3.67, C13 16.93, C14 20.49, C15 21.85, C16 4.11 µM (Table S3), Figure 4C left","no significant antifungal activity at physiological concentrations, except for the C12 analog"
same,"toxicity to B. velezensis UMAF6639 (OD600 over 24 h), surfactin variants at the mixture concentration",B. velezensis UMAF6639 [1],most toxic
"Ser-Asn-Pro-Gln-Asn-Tyr-Asn (head to tail) [C15-iturin A, iturin A analogue with C15 fatty acid chain, iturin Fraction C, purified from B. velezensis UMAF6639]","antifungal activity (fungal growth, OD600), iturins at physiological concentration","B. cinerea; B. cinerea 100 spores/well in PDB, 150 rpm, mix 7.35 µM, C13 1.27, C14 2.39, C15 0.76, C16 1.96, C17 0.93 µM (Table S3), Figure 4A left",failed to exhibit antifungal activity
same,"antifungal activity (fungal growth, OD600), iturin variants at the concentration of the entire mixture","B. cinerea; each variant at 7.35 μM, B. cinerea, PDB, Figure 4A right",sole active analog
same,bacterial counts (CFU) of B. velezensis UMAF6639 cultures,B. velezensis UMAF6639 [3],increased bacterial counts
same,"effect on B. velezensis UMAF6639 growth (OD600 over 24 h), iturin variants at the higher (mixture) concentration",B. velezensis UMAF6639 [1],"decrease in the optical density, the values remained above those of the untreated control"
same,"effect on B. velezensis UMAF6639 growth (OD600 over 24 h), iturins at physiological concentration",B. velezensis UMAF6639 [1],considerable increase in the OD600 value
same,"melon seed radicle growth promotion (radicle area), iturin variants at the same concentration",[2],significantly promoted radicle growth
"Glu-Orn-Tyr-Thr-Glu-Ala/Val-Pro-Gln-Thr-Ile (lariat or depsi) [C14-fengycin B, fengycin B variant with C14 fatty acid, fengycin Fraction B]","antifungal activity (fungal growth, OD600), fengycin variants at the highest concentration tested","B. cinerea; each fraction at mixture concentration (25.60 µM), B. cinerea, PDB, Figure 4B right",weak antifungal activity
same,"effect on B. velezensis UMAF6639 growth (OD600 over 24 h), fengycin fractions at the highest (mixture) concentration","B. velezensis UMAF6639 [1]; each fraction at 25.60 µM, Figure 6F-J",more pronounced
same,"effect on B. velezensis UMAF6639 growth (OD600 over 24 h), fengycins at physiological (lower) concentration","B. velezensis UMAF6639 [1]; mix 25.60 µM, fractions B 3.96, C 5.44, D 2.50, E 11.21, F 2.22 µM, Figure 6F-J",slightly delayed growth
"Glu-Orn-Tyr-Thr-Glu-Ala/Val-Pro-Gln-Thr-Ile (lariat or depsi) [fengycin A, fengycin variant with Ala at position 6; literature MIC comparison]",minimal inhibitory concentration,[4],notably greater than that of fengycin B
"Glu-Leu/Ile-Leu-Val-Asp-Leu-Leu/Ile (lariat or depsi) [C13-surfactin, surfactin analogue with C13 fatty acid, surfactin Fraction B]",bacterial counts (CFU) of B. velezensis UMAF6639 cultures,B. velezensis UMAF6639 [3],increased bacterial counts
same,"effect on B. velezensis UMAF6639 growth (OD600 over 24 h), surfactins at physiological concentration",B. velezensis UMAF6639 [1],considerable increase in the OD values
"Ser-Asn-Pro-Gln-Asn-Tyr-Asn (head to tail) [C17-iturin A, iturin A analogue with C17 fatty acid chain, iturin Fraction E, purified from B. velezensis UMAF6639]","effect on B. velezensis UMAF6639 growth (OD600 over 24 h), iturin variants at the higher (mixture) concentration",B. velezensis UMAF6639 [1],completely arrested B. velezensis growth
same,"melon seed radicle growth promotion (radicle area), iturin variants at the same concentration",[2],slightly reduced the root area
"Glu-Leu/Ile-Leu-Val-Asp-Leu-Leu/Ile (lariat or depsi) [C15-surfactin, surfactin analogue with C15 fatty acid, surfactin Fractions E, F and G]","effect on B. velezensis UMAF6639 growth (OD600 over 24 h), surfactins at physiological concentration",B. velezensis UMAF6639 [1],delayed bacterial growth
"Ser-Asn-Pro-Gln-Asn-Tyr-Asn (head to tail) [C13-iturin A, iturin A analogue with C13 fatty acid chain, iturin Fraction A, purified from B. velezensis UMAF6639]","effect on B. velezensis UMAF6639 growth (OD600 over 24 h), iturin variants at the higher (mixture) concentration",B. velezensis UMAF6639 [1],harmless to Bacillus cells
same,"effect on B. velezensis UMAF6639 growth (OD600 over 24 h), iturins at physiological concentration",B. velezensis UMAF6639 [1],harmless to Bacillus cells
same,"melon seed radicle growth promotion (radicle area), iturin variants at the same concentration",[2],compromised root development
"Glu-Leu/Ile-Leu-Val-Asp-Leu-Leu/Ile (lariat or depsi) [C16-surfactin, surfactin analogue with C16 fatty acid, surfactin Fraction H]","antifungal activity (fungal growth, OD600), surfactin variants at increased concentration","B. cinerea; each analog at mixture concentration (65.83 µM), B. cinerea, PDB, Figure 4C right",comparable to that of the positive control
same,"toxicity to B. velezensis UMAF6639 (OD600 over 24 h), surfactin variants at the mixture concentration",B. velezensis UMAF6639 [1],most toxic
same,"effect on B. velezensis UMAF6639 growth (OD600 over 24 h), surfactins at physiological concentration",B. velezensis UMAF6639 [1],delayed bacterial growth
"Ser-Asn-Pro-Gln-Asn-Tyr-Asn (head to tail) [C16-iturin A, iturin A analogue with C16 fatty acid chain, iturin Fraction D, purified from B. velezensis UMAF6639]","effect on B. velezensis UMAF6639 growth (OD600 over 24 h), iturin variants at the higher (mixture) concentration",B. velezensis UMAF6639 [1],bacterial growth was slightly delayed
same,"effect on B. velezensis UMAF6639 growth (OD600 over 24 h), iturins at physiological concentration",B. velezensis UMAF6639 [1],no difference from the control
same,"melon seed radicle growth promotion (radicle area), iturin variants at the same concentration",[2],significantly promoted radicle growth
